“And” between values parts separate entries of the source, which are not always exact repeats. Equal entries are not always repeated. Toxic doses and inconclusive results are not listed. No stated cut-off is given here; in the data, active means T/C of 150% or more; inactive means T/C below 125%. Square brackets hold non-standard residues; d marks the D form. Peptide text beside a SMILES is read from it. * marks the point of attachment. ξ: configuration not given here. ξF = NC(Cc1ccccc1)C(=O)O; Cbz = O=C(OCc1ccccc1)*
Tested on: L1210 leukemia ip in BDF1 mice, survival T/C
Experiment: NCI In Vivo Anticancer Drug Screen. Data for tumor model L1210 Leukemia (intraperitoneal) in B6D2F1 (BDF1) mice
Conditions: endpoint: mean survival time, higher = longer survival
In short: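 Mice bearing the transplanted tumor received compound or vehicle. Survival of the treated group was divided by that of the vehicle-treated control group to give the ratio.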

[1] = dose: 100.0 mg/kg/injection, schedule: Q04DX003 (ip), vehicle: saline with Tween-80
[2] = dose: 200.0 mg/kg/injection, schedule: Q04DX003 (ip), vehicle: saline with Tween-80
[3] = dose: 400.0 mg/kg/injection, schedule: Q04DX003 (ip), vehicle: saline with Tween-80
[4] = dose: 100.0 mg/kg/injection, schedule: Q04DX003 (ip), vehicle: Klucel (hydroxypropylcellulose) (HPC)
[5] = dose: 200.0 mg/kg/injection, schedule: Q04DX003 (ip), vehicle: Klucel (hydroxypropylcellulose) (HPC)
[6] = dose: 400.0 mg/kg/injection, schedule: Q04DX003 (ip), vehicle: Klucel (hydroxypropylcellulose) (HPC)
[7] = dose: 100.0 mg/kg/injection, schedule: Q01DX001 (ip), vehicle: carboxymethylcellulose (CMC)
[8] = dose: 25.0 mg/kg/injection, schedule: Q04DX003 (ip), vehicle: saline
[9] = dose: 50.0 mg/kg/injection, schedule: Q04DX003 (ip), vehicle: saline
[10] = dose: 100.0 mg/kg/injection, schedule: Q04DX003 (ip), vehicle: saline
[11] = dose: 100.0 mg/kg/injection, schedule: Q01DX009 (ip), vehicle: Klucel (hydroxypropylcellulose) (HPC)
[12] = dose: 200.0 mg/kg/injection, schedule: Q01DX009 (ip), vehicle: Klucel (hydroxypropylcellulose) (HPC)
[13] = dose: 400.0 mg/kg/injection, schedule: Q01DX009 (ip), vehicle: Klucel (hydroxypropylcellulose) (HPC)
[14] = dose: 50.0 mg/kg/injection, schedule: Q01DX009 (ip), vehicle: saline with Tween-80
[15] = dose: 100.0 mg/kg/injection, schedule: Q01DX009 (ip), vehicle: saline with Tween-80
[16] = dose: 200.0 mg/kg/injection, schedule: Q01DX009 (ip), vehicle: saline with Tween-80

Measured: T/C

[O-][N+](Cc1ccccc1)=Nc1ccccc1
inactive: dose: 100.0 mg/kg/injection, schedule: Q01DX001 (ip), vehicle: Klucel (hydroxypropylcellulose) (HPC) 100 % of control | dose: 200.0 mg/kg/injection, schedule: Q01DX001 (ip), vehicle: Klucel (hydroxypropylcellulose) (HPC) 96 % of control | dose: 400.0 mg/kg/injection, schedule: Q01DX001 (ip), vehicle: Klucel (hydroxypropylcellulose) (HPC) 89 % of control

COc1cc(C)c(O)c(C)c1C
inactive: [1] 95 % of control | [2] 95 % of control | [3] 95 % of control

N#CCCCCCCn1cnc2c(=S)nc[nH]c21
inactive: [4] 104 % of control | [5] 107 % of control | [6] 107 % of control

Nc1ccc2c(c1)Cc1cc(NC=O)ccc1-2
inactive: [7] 101 % of control | dose: 200.0 mg/kg/injection, schedule: Q01DX001 (ip), vehicle: carboxymethylcellulose (CMC) 97 % of control | dose: 400.0 mg/kg/injection, schedule: Q01DX001 (ip), vehicle: carboxymethylcellulose (CMC) 92 % of control

Nc1nc(N)c2cc(NCc3ccc(Br)cc3)ccc2n1
inactive: dose: 6.25 mg/kg/injection, schedule: Q01DX009 (ip), vehicle: saline with Tween-80 103 % of control | dose: 12.5 mg/kg/injection, schedule: Q01DX009 (ip), vehicle: saline with Tween-80 100 % of control | [8] 96 % of control

CN(C)CCN1c2ccccc2Sc2ccccc21
inactive: dose: 12.5 mg/kg/injection, schedule: Q04DX003 (ip), vehicle: saline 97 % of control | [8] 108 % of control | [9] 103 % of control | [10] 101 % of control

CC(C)c1ccc(NCN2C(=O)c3ccccc3C2=O)cc1
inactive: [11] 100 % of control | [12] 103 % of control | [13] 101 % of control

O=c1ccn(C2CC(O)C(CO)C2)c(=S)[nH]1 (stereo unspecified)
inactive: [14] 103 % of control | [15] 107 % of control | [16] 93 % of control

Cc1cc(N(CCOS(C)(=O)=O)CCOS(C)(=O)=O)ccc1C=Nc1ccc(C(=O)O)cc1
inactive: dose: 2.5 mg/kg/injection, schedule: Q04DX003 (ip), vehicle: Klucel (hydroxypropylcellulose) (HPC) 108 % of control | dose: 5.0 mg/kg/injection, schedule: Q04DX003 (ip), vehicle: Klucel (hydroxypropylcellulose) (HPC) 113 % of control | dose: 6.6 mg/kg/injection, schedule: Q04DX003 (ip), vehicle: Klucel (hydroxypropylcellulose) (HPC) 102 % of control | dose: 10.0 mg/kg/injection, schedule: Q04DX003 (ip), vehicle: Klucel (hydroxypropylcellulose) (HPC) 103 % of control | dose: 15.0 mg/kg/injection, schedule: Q04DX003 (ip), vehicle: Klucel (hydroxypropylcellulose) (HPC) 118 % of control | dose: 20.0 mg/kg/injection, schedule: Q04DX003 (ip), vehicle: Klucel (hydroxypropylcellulose) (HPC) 113 % of control | dose: 40.0 mg/kg/injection, schedule: Q04DX003 (ip), vehicle: Klucel (hydroxypropylcellulose) (HPC) 114 % of control

COc1ccccc1-c1c(C(=O)O)cccc1[N+](=O)[O-]
inactive: [15] 98 % of control | [16] 106 % of control | dose: 400.0 mg/kg/injection, schedule: Q01DX009 (ip), vehicle: saline with Tween-80 101 % of control

O=C(Nc1ccccc1C(=O)N/N=C/c1cccc(O)c1)c1ccccc1
inactive: [11] 103 % of control | [12] 89 % of control | [13] 97 % of control

COC(=O)C(C(C)C)N(C)C(=O)OC(C)(C)C (stereo unspecified)
inactive: dose: 100.0 mg/kg/injection, schedule: Q01DX001 (ip), vehicle: other 104 % of control | dose: 200.0 mg/kg/injection, schedule: Q01DX001 (ip), vehicle: other 102 % of control | dose: 400.0 mg/kg/injection, schedule: Q01DX001 (ip), vehicle: other 100 % of control

C=C1CC(c2ccc(S(=O)(=O)N3CCCC3)cc2)OC1=O (stereo unspecified)
inactive: dose: 100.0 mg/kg/injection, schedule: Q04DX002 (ip), vehicle: Klucel (hydroxypropylcellulose) (HPC) 95 % of control | dose: 200.0 mg/kg/injection, schedule: Q04DX002 (ip), vehicle: Klucel (hydroxypropylcellulose) (HPC) 98 % of control

CNNC(=O)c1cccnc1
inactive: dose: 25.0 mg/kg/injection, schedule: Q01DX001 (ip), vehicle: saline 95 % of control | dose: 25.0 mg/kg/injection, schedule: Q01DX009 (ip), vehicle: saline 95 % of control and 98 % of control | [8] 105 % of control | dose: 50.0 mg/kg/injection, schedule: Q01DX001 (ip), vehicle: saline 100 % of control | dose: 50.0 mg/kg/injection, schedule: Q01DX009 (ip), vehicle: saline 95 % of control and 100 % of control | [9] 104 % of control | dose: 100.0 mg/kg/injection, schedule: Q01DX001 (ip), vehicle: saline 102 % of control | dose: 100.0 mg/kg/injection, schedule: Q01DX009 (ip), vehicle: saline 95 % of control and 98 % of control | [10] 98 % of control

CC(C)(Oc1ccc(Cl)cc1Cl)C(=O)O
inactive: dose: 100.0 mg/kg/injection, schedule: Q01DX009 (ip), vehicle: gum acacia 90 % of control

Cc1noc(/N=C(/C(=N/c2onc(C)c2C)c2ccccc2)c2ccccc2)c1C
inactive: [4] 97 % of control | [5] 103 % of control | [6] 97 % of control

Cc1ccccc1SCN(CSc1ccccc1C)C(C)(C)CC(C)(C)C
inactive: [7] 101 % of control

CCCCc1ccc(C(=O)O)nc1.[Cu+2]
inactive: dose: 5.0 mg/kg/injection, schedule: Q01DX001 (ip), vehicle: saline 97 % of control | dose: 10.0 mg/kg/injection, schedule: Q01DX001 (ip), vehicle: saline 105 % of control | dose: 20.0 mg/kg/injection, schedule: Q01DX001 (ip), vehicle: saline 106 % of control

C#CC[N+]1=CN(c2ccc(C)cc2)Cc2cc(C)ccc21
inactive: [14] 89 % of control | [15] 93 % of control | [1] 110 % of control | [2] 98 % of control

O=C(Nc1cccc(O)c1)c1ccccc1Cl
inactive: [11] 96 % of control | [12] 97 % of control | [13] 92 % of control

O=C1/C(=C\c2ccccc2)SC(=Nc2ccccc2)N1c1ccccc1
inactive: [11] 101 % of control | [4] 104 % of control | [12] 98 % of control | [5] 96 % of control | [13] 93 % of control | [6] 94 % of control

CC(C)=CCC/C(C)=C\C1N(C)CCCN1C
inactive: dose: 25.0 mg/kg/injection, schedule: Q01DX009 (ip), vehicle: saline with Tween-80 92 % of control | dose: 25.0 mg/kg/injection, schedule: Q04DX003 (ip), vehicle: saline with Tween-80 98 % of control | [14] 88 % of control | dose: 50.0 mg/kg/injection, schedule: Q04DX003 (ip), vehicle: saline with Tween-80 92 % of control

COC(=O)C(Cc1ccccc1)NC(=O)CNC(=O)OCc1ccccc1 (stereo not drawn) (Cbz-Gly-[ξF]-OMe)
inactive: dose: 100.0 mg/kg/injection, schedule: Q04DX003 (ip), vehicle: other 106 % of control | dose: 200.0 mg/kg/injection, schedule: Q04DX003 (ip), vehicle: other 101 % of control | dose: 400.0 mg/kg/injection, schedule: Q04DX003 (ip), vehicle: other 106 % of control

Cc1ccc(S(=O)(=O)N/N=C/C(C)(C)C(C)C)cc1
inactive: [1] 108 % of control | [2] 97 % of control | [3] 98 % of control

CN(C)C(=O)Nc1cccc(OC(=O)Nc2ccccc2)c1
inactive: [1] 104 % of control | [2] 96 % of control | [3] 96 % of control
